According to patent US11904025B2, “Cyclophanes for live-cell imaging” (Northwestern University, priority 2018, dated 2024):
“Also recorded” adds a separate entry of the source.

What was measured:
[1] = system: RAW 264.7 cells; assay: MTT assay, cell viability after 24 h incubation; conditions: for cell viability: RAW 264.7 cells, 100 μM loading concentration, 24 h incubation
Description: Cell culture: Murine macrophages (RAW 264.7 cells) that were obtained from the American Type Culture Collection (ATCC, Rockville, MD, USA) were utilized for cell culture experiments.
After 24 h incubation, each well was added with MTT (5 mg/ml in PBS, 10 μL) and then incubated for 4 h. The media from each well was pipetted out, formazan crystals deposited on the plate were dissolved in 200 μL of dimethyl sulfoxide and the absorbance of each well was measured using a microplate reader at 560 nm.
All the samples were analyzed in quadruplicates. The percentage cell viability was then calculated using the formula: % cell viability=(OD of treated sample/OD of the untreated sample)*100.

[2] = Solubility; conditions: H2O
[3] = Absolute fluorescence quantum yield; type: physicochemical; conditions: in H2O
Description: (§1) UV/Vis Absorption spectra were recorded using a UV-3600 Shimadzu spectrophotometer. Steady-state emission spectra were acquired using HORIBA Nanolog spectrofluorimeter equipped with an integrating sphere for absolute photoluminescence quantum yield determination and time-correlated single-photon counting (TCSPC) module for emission decays of 4·2Cl in H2O. The time-resolved fluorescence (TRF) measurement of 6·4Cl in H2O was carried out with a streak camera system (Hamamatsu C4334 Streakscope).

[4] = system: RAW 264.7 macrophages; assay: Live cell confocal microscopy; type: cell-based, Murine; conditions: for fluorescence inside cells after incubation: RAW 264.7 cells, 4 h incubation (6·4Cl 20 μM in PBS); for photobleaching inside cells under imaging conditions: blue laser excitation
Description: RAW 264.7 macrophages (1×10^5 cells/mL, 475 μL) were plated in each well of a 4 well p-slide (ibidi cell focus) and cultured overnight. […] After incubation, cells were washed with phenol free DMEM and stained with LysoTracker green (lysosome stain) or SYTO nuclei (nuclear stain) at 1:10,000 dilutions. Controls used were cells added with only stains, cells only and cells with materials only. Plated cells were imaged within a humidified chamber using a 100× oil-immersion objective on an SP5 Leica Confocal Microscope using HyD detectors and lasers: 405 nm diode laser for material, 561 nm HeNe laser for Lysotracker green, and 633 nm HeNe laser for SYTO 61.

[5] = UV light photobleaching / photostability in solution; type: physicochemical
Description: Samples were irradiated with a 18 W LED UV flashlight (395 nm, Hinmay super bright LED). They were immersed in a 23±1° C. water bath during irradiation periods. (FIG. 5A-5B)

[6] = system: RAW 264.7 macrophages; assay: Calcein AM cell viability assay; type: cell-based, Murine; conditions: RAW 264.7 cells, 24 h incubation, 1.56-100 μM
Description: After 24 h of incubation, cells were washed twice with PBS, added with Calcein AM (1 μM, 100 μL in PBS) to each well and then incubated for 1 h in the dark. […] The measured fluorescence intensity (FI) is proportional to the number of viable cells.

[7] = Fluorescence at different pH and in serum; type: physicochemical
Description: as §1

[8] = system: RAW 264.7 macrophages; assay: Phototoxicity studies (irradiation, then Calcein AM viability); type: cell-based, Murine; conditions: RAW 264.7 cells, different concentrations, light 410 nm, 25 mW, 15 min
Description: After 24 h incubation, wells were washed with PBS, added with 100 μL of DMEM and immediately irradiated with visible light using Max-303 Xenon Light Source (410 nm, Asahi Spectra) at a light intensity of […] for 15 min. Following irradiation cells were incubated overnight and viability was measured using Calcein AM as described above.

## C[n+]1ccc(-c2ccc(-c3cc[n+](C)cc3)cc2)cc1 [2·2Cl, Me2ExBIPY·2Cl]
[1]
  cell viability: 68%

## C[n+]1ccc(-c2nc3sc(-c4cc[n+](C)cc4)nc3s2)cc1 [4·2Cl, 4,4′-(Thiazolo[5,4-d]thiazole-2,5-diyl)bis(1-methylpyridinium), reference compound]
[2]
  water solubility: Water soluble
[1]
  cell viability: ~75%
[3]
  fluorescence quantum yield ΦF: 0.95
[4]
  fluorescence inside cells after incubation: only a little fluorescence
[4]; listed as Me2TzBIPY·2Cl
  fluorescence inside cells after incubation: very little fluorescence
[4]; RAW 264.7 macrophages
  photobleaching inside cells under imaging conditions: quenched completely
[4]; laser irradiation under imaging conditions
  time until fluorescence inside the cells is quenched: ≤ 3 s

## c1cc2ccc1C[n+]1ccc(cc1)-c1ccc(cc1)-c1cc[n+](cc1)Cc1ccc(cc1)C[n+]1ccc(cc1)-c1nc3sc(nc3s1)-c1cc[n+](cc1)C2 [6·4Cl, ExTz·4Cl]
[5]; H2O, several months under natural daylight
  photostability in H2O: extremely photostable
[5]; UV flashlight 18 W, 395 nm, 60 min
  loss of absorbance intensity on UV irradiation (photobleaching): a little loss of absorbance intensity
[2]
  water solubility: highly water-soluble
[6]
  cell viability by Calcein AM versus MTT result: confirmed
[1]; RAW 264.7 macrophages, loading concentration as high as 100 μM
  cytotoxicity (in words): non-cytotoxic; also recorded: less cytotoxic
[3]
  fluorescence quantum yield ΦF: 1.00
[3]; listed as 6^4+
  fluorescence quantum yield ΦF: unity
[4]
  fluorescence inside cells after incubation: brilliant blue emission
[4]; RAW 264.7 macrophages
  photobleaching inside cells under imaging conditions: without any hint of photobleaching
[4]; RAW 264.7 macrophages, confocal microscopy, listed as 6^4+
  cellular uptake: efficiently taken up
[4]; live cells
  fluorescence brightness inside the cells relative to reference 4^2+: six times brighter
[4]; living macrophages, co-incubation with LysoTracker green
  cellular localization: enters the lysosomes
[7]; 10% Fetal bovine serum
  fluorescence in serum compared with water: slightly lower fluorescence intensity
[7]; pH=1 to 7
  change of fluorescence characteristics with pH: without any change
[8]
  phototoxicity: no phototoxicity

## c1cc2ccc1C[n+]1ccc(cc1)-c1cc[n+](cc1)Cc1ccc(cc1)C[n+]1ccc(cc1)-c1cc[n+](cc1)C2 [BlueBox, BlueBox·4Cl]
[1]
  cell viability: over 96%

## C[n+]1ccc(-c2cc[n+](C)cc2)cc1 [paraquat, dimethyl viologen]
[1]
  cell viability: ~63%
